Experiment [1] has as its target c-Kit (Homo sapiens (Human), UniProt P10721). Kind of experiment: Inhibition of c-Kit kinase activity (HTRF KinEASE-TK). It is filed as biochemical. The conditions noted are these: biochemical, HTRF KinEASE-TK. The method in brief:
(§1)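 Human kinases were preincubated 1 h at rt with a 22-point 1:2 compound titration, then run 120 min at rt with biotinylated TK peptide and ATP (2× mix: c-Kit 16 μM, PDGFRα 1 μM, PDGFRβ 40 μM, CSF1R 20 μM). Phosphopeptide was read by HTRF TR-FRET (665/620 nm), and IC50s came from 4-parameter fits.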

The target of experiment [2] is FLT3 (Homo sapiens (Human), UniProt P36888). Kind of experiment: Inhibition of FLT3 kinase activity (HTRF KinEASE-TK). The experiment is classed as biochemical. The conditions noted are these: biochemical, HTRF KinEASE-TK. The method in brief:
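FLT3 tyrosine kinase activity was measured with the HTRF KinEASE-TK kit by following phosphorylation of a biotinylated TK peptide. After the 45 min reaction, 10 μL of detection mix was added: 0.2 μM (2×) Streptavidin-XL665 and 2 μM (2×) TK-Antibody-Cryptate in detection buffer. After 60 min, TR-FRET was read on an Envision as the 665 nm/620 nm emission ratio with 320 nm excitation.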

In experiment [3] the target is CSF1R (Homo sapiens (Human), UniProt P07333). Kind of experiment: Inhibition of CSF1R kinase activity (HTRF KinEASE-TK). The conditions noted are these: biochemical, HTRF KinEASE-TK. The method in brief: as §1
Experiment [4] has as its target PDGFRα (Homo sapiens (Human), UniProt P16234). Kind of experiment: Inhibition of PDGFRα kinase activity (HTRF KinEASE-TK). The conditions noted are these: biochemical, HTRF KinEASE-TK. In a few lines: as §1
The test system of experiment [5] is Phospho-KIT (Y703) in M07e cells. Kind of experiment: Phospho-KIT (Y703) cellular assay in M07e cells. The experiment is classed as cell-based. The conditions noted are these: M-07e; Phospho-KIT (Y703), M07e cells; read-out: M07e Cell IC50. In a few lines:
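Serum-starved M07e cells preincubated 50 min at 37° C with 11-point half-log compound titration, then stimulated 10 min with SCF at 90.9 ng/mL final. Fixed, permeabilized cells stained for phospho-KIT Y703 and read by flow cytometry (live-gated geometric mean); IC50 by 4-parameter fit normalized to DMSO and positive control.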

The target of experiment [6] is PDGFRβ (Homo sapiens (Human), UniProt P09619). Kind of experiment: Inhibition of PDGFRβ kinase activity (HTRF KinEASE-TK). The conditions noted are these: biochemical, HTRF KinEASE-TK. The method in brief:
as §1

Molecules are shown by their SMILES.

Chain of c-Kit (P10721 26-976): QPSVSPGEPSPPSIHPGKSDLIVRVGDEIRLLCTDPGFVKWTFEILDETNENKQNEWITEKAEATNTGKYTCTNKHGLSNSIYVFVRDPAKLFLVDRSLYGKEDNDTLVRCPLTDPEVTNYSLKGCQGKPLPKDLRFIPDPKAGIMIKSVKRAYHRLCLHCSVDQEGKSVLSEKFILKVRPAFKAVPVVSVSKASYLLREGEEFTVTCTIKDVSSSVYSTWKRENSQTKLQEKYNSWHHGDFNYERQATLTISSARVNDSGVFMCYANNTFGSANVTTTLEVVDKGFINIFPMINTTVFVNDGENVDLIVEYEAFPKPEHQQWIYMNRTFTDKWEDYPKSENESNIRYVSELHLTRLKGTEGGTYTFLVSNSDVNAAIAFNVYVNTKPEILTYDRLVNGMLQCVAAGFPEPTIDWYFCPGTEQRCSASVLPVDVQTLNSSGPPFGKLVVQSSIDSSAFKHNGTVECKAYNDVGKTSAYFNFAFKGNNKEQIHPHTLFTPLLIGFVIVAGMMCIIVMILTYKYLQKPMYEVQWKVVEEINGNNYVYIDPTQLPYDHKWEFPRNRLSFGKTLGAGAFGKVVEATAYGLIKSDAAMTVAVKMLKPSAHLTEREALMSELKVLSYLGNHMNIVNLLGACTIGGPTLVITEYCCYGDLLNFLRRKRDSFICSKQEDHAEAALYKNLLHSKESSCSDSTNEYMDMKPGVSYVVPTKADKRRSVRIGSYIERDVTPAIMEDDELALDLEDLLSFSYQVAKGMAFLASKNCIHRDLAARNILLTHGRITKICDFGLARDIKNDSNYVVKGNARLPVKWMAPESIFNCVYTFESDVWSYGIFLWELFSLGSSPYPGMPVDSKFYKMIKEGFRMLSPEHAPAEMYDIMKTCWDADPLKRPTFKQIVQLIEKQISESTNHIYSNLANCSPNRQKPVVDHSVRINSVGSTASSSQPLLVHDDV
Chain of FLT3 (P36888 27-993): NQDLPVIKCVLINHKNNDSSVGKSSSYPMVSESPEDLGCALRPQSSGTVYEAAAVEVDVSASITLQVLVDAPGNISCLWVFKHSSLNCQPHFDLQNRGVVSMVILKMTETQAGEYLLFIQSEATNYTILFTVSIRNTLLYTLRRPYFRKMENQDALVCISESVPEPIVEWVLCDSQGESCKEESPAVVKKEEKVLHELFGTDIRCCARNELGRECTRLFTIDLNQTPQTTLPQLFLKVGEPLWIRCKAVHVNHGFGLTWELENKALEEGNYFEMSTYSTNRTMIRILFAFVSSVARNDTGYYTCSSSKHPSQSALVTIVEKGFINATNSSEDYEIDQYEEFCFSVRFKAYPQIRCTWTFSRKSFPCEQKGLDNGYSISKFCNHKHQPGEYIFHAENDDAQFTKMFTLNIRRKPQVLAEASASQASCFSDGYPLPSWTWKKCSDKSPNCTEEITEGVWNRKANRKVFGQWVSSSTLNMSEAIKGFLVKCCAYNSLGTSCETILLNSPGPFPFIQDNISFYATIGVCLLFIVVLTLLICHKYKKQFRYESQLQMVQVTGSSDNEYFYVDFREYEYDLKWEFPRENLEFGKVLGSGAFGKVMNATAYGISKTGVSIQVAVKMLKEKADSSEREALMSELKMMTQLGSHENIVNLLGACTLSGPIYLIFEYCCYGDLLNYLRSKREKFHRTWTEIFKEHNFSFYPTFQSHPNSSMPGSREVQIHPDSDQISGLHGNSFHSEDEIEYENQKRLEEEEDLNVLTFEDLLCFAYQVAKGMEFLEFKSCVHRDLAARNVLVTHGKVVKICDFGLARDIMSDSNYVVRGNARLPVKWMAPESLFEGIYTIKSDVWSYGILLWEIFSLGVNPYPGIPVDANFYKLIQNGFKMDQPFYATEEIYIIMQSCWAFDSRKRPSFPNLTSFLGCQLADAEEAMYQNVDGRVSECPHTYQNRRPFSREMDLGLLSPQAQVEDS
Chain of PDGFRα (P16234 24-1089): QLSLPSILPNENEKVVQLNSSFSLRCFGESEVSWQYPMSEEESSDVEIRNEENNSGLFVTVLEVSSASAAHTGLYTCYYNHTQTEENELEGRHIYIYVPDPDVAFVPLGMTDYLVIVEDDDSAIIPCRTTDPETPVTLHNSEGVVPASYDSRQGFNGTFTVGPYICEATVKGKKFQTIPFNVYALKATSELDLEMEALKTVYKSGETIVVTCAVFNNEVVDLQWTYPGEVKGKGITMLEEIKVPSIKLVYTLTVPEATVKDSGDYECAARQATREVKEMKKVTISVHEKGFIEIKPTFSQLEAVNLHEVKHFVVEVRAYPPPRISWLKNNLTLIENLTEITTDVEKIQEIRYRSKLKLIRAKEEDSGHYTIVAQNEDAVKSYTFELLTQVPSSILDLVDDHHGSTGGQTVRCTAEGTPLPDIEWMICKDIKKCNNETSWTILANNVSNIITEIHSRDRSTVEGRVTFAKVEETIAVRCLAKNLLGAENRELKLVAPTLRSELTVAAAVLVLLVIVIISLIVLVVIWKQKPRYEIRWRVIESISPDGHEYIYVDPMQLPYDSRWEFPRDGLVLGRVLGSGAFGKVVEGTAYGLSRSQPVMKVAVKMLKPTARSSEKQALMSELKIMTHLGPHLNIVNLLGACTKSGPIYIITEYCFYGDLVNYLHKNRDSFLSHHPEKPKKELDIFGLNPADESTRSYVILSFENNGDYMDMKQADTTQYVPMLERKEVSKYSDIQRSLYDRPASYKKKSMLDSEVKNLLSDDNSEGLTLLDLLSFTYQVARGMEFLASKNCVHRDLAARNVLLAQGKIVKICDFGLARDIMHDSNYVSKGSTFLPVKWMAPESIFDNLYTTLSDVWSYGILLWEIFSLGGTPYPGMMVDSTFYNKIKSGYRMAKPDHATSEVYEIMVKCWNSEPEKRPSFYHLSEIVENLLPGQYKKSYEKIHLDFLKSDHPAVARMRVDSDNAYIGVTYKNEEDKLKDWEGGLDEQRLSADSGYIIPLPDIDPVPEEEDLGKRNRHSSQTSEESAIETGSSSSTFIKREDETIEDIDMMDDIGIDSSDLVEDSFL
Chain of PDGFRβ (P09619 33-1106): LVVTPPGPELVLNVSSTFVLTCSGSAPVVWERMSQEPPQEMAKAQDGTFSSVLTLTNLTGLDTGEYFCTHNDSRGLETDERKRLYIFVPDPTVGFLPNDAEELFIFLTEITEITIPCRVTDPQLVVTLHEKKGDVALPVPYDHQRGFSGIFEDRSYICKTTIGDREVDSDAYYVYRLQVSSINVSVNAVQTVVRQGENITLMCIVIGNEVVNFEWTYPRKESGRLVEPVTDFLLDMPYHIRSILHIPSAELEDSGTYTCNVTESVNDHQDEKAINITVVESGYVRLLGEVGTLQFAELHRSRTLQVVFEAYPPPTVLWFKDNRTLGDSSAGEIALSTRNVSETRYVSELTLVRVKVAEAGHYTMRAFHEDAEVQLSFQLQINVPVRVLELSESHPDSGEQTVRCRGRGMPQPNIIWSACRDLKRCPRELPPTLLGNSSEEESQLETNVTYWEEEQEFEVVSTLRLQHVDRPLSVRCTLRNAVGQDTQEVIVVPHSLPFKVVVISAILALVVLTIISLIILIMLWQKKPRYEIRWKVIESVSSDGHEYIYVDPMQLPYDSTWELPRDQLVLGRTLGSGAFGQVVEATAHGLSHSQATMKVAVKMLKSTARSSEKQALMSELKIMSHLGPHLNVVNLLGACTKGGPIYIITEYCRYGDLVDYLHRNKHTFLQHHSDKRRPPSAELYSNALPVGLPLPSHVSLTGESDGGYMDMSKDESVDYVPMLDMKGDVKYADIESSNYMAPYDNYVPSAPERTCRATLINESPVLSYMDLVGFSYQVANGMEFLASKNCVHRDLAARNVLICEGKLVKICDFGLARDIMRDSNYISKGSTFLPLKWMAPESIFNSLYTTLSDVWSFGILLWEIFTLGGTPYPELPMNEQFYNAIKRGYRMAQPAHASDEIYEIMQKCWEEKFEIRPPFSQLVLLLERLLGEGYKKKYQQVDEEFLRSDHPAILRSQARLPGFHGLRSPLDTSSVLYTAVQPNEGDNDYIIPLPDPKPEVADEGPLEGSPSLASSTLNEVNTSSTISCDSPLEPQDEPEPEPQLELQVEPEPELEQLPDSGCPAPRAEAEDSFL
Chain of CSF1R (P07333 20-972): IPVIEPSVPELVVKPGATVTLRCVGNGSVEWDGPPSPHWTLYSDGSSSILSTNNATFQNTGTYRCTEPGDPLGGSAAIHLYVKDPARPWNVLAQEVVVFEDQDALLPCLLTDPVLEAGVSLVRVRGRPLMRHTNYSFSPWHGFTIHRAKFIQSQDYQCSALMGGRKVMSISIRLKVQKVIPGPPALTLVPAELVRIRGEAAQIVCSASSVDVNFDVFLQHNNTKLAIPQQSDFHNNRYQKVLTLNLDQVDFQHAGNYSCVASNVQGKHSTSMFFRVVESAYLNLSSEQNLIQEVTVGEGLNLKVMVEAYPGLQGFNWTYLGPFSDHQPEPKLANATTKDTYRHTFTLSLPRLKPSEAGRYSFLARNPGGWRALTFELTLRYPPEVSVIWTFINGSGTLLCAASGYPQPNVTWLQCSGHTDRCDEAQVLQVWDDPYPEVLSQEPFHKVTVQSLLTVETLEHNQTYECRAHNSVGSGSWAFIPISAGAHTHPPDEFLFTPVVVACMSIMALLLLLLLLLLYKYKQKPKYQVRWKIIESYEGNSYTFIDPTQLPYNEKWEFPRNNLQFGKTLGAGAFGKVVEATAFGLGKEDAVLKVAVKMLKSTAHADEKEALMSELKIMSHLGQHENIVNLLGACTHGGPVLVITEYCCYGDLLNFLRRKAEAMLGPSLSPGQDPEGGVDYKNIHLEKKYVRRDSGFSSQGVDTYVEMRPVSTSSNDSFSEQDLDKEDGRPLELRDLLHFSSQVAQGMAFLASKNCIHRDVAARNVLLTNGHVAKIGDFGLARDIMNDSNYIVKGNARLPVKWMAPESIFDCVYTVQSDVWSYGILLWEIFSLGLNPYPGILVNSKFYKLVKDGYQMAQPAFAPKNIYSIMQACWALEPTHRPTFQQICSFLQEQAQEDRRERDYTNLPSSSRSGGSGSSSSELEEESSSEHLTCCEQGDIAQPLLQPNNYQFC

With `Cc1cc(F)c(C(=O)Nc2ccn(C3CCC3)n2)cc1NC(=O)c1cnc(N)s1` [Example 155, 2-Amino-N-[5-[(1-cyclobutylpyrazol-3-yl)carbamoyl]-4-fluoro-2-methylphenyl]-1,3-thiazole-5-carboxamide], the IC50 in experiment [1] is below 100 nM; in experiment [2], above 1000 nM; in experiment [3] it was above 1000 nM; in experiment [4] it was 100 to 1000 nM; in experiment [5], below 100 nM; in experiment [6] it was 100 to 1000 nM.

As to `Cc1cc(F)c(C(=O)Nc2cc3n(n2)CCC3)cc1NC(=O)c1cnc(N)s1` [Example 156, 2-Amino-N-[5-(5,6-dihydro-4H-pyrrolo[1,2-b]pyrazol-2-ylcarbamoyl)-4-fluoro-2-methylphenyl]-1,3-thiazole-5-carboxamide], the IC50 was below 100 nM in experiment [1]; above 1000 nM in experiment [2]; above 1000 nM in experiment [3]; above 1000 nM in experiment [4]; below 100 nM in experiment [5]; 100 to 1000 nM in experiment [6].

For `Cc1cc(F)c(C(=O)Nc2ccn(C(C)C)n2)cc1NC(=O)c1cnc(N)s1` [Example 158, 2-Amino-N-[4-fluoro-2-methyl-5-[(1-propan-2-ylpyrazol-3-yl)carbamoyl]phenyl]-1,3-thiazole-5-carboxamide], the concentration for half-maximal inhibition (IC50) in experiment [1] is below 100 nM; in experiment [2] it was above 1000 nM; in experiment [3], above 1000 nM; in experiment [4], 100 to 1000 nM; in experiment [5], below 100 nM; in experiment [6], 100 to 1000 nM.

As to `Cc1cc(F)c(C(=O)Nc2ccn(C3CC3)n2)cc1NC(=O)c1cnc(N)s1` [Example 159, 2-Amino-N-[5-[(1-cyclopropylpyrazol-3-yl)carbamoyl]-4-fluoro-2-methylphenyl]-1,3-thiazole-5-carboxamide], the IC50 in experiment [1] is below 100 nM; in experiment [2] it was above 1000 nM; in experiment [3] it was above 1000 nM; in experiment [4], above 1000 nM; in experiment [5] it was below 100 nM; in experiment [6] it was above 1000 nM.

Take `Cc1cc(F)c(C(=O)Nc2ccn(-c3ccccc3)n2)cc1NC(=O)c1cnc(N)s1` [Example 172, 2-Amino-N-[4-fluoro-2-methyl-5-[(1-phenylpyrazol-3-yl)carbamoyl]phenyl]-1,3-thiazole-5-carboxamide]: the IC50 in experiment [1] was below 100 nM; in experiment [2], above 1000 nM; in experiment [3], above 1000 nM; in experiment [4], above 1000 nM; in experiment [5] it was below 100 nM; in experiment [6], above 1000 nM.

As for `CCn1ccc(NC(=O)c2cc(NC(=O)c3cnc(N)s3)c(C)cc2F)n1` [Example 179, 2-Amino-N-[5-[(1-ethylpyrazol-3-yl)carbamoyl]-4-fluoro-2-methylphenyl]-1,3-thiazole-5-carboxamide], the IC50 was below 100 nM in experiment [1]; above 1000 nM in experiment [2]; above 1000 nM in experiment [3]; above 1000 nM in experiment [4]; below 100 nM in experiment [5]; above 1000 nM in experiment [6].

`Cc1cc(F)c(C(=O)Nc2ccn(C(F)F)n2)cc1NC(=O)c1cnc(N)s1` [Example 181, 2-Amino-N-[5-[[1-(difluoromethyl)pyrazol-3-yl]carbamoyl]-4-fluoro-2-methylphenyl]-1,3-thiazole-5-carboxamide]: the IC50 in experiment [1] is below 100 nM; in experiment [2], above 1000 nM; in experiment [3], above 1000 nM; in experiment [4] it was above 1000 nM; in experiment [5], below 100 nM; in experiment [6], above 1000 nM.

In the case of `CO[C@H]1C[C@@H](n2ccc(NC(=O)c3cc(NC(=O)c4cnc(N)s4)c(C)cc3F)n2)C1` [Example 185, 2-Amino-N-[4-fluoro-5-[[1-(cis-3-methoxycyclobutyl)pyrazol-3-yl]carbamoyl]-2-methylphenyl]-1,3-thiazole-5-carboxamide], the IC50 in experiment [1] was below 100 nM; in experiment [2], above 1000 nM; in experiment [3] it was above 1000 nM; in experiment [4], above 1000 nM; in experiment [5], below 100 nM; in experiment [6] it was above 1000 nM.

As to `CO[C@H]1C[C@H](n2ccc(NC(=O)c3cc(NC(=O)c4cnc(N)s4)c(C)cc3F)n2)C1` [Example 187, 2-Amino-N-[4-fluoro-5-[[1-(trans-3-methoxycyclobutyl)pyrazol-3-yl]carbamoyl]-2-methylphenyl]-1,3-thiazole-5-carboxamide], the IC50 in experiment [1] is below 100 nM; in experiment [2] it was above 1000 nM; in experiment [3] it was above 1000 nM; in experiment [4], above 1000 nM; in experiment [5], below 100 nM; in experiment [6], above 1000 nM.

Turning to `COc1ccnc(NC(=O)c2cc(NC(=O)c3cnc(N)s3)c(C)cc2F)c1` [Example 189, 2-Amino-N-[4-fluoro-5-[(4-methoxypyridin-2-yl)carbamoyl]-2-methylphenyl]-1,3-thiazole-5-carboxamide], the IC50 is below 100 nM in experiment [1]; above 1000 nM in experiment [2]; 100 to 1000 nM in experiment [3]; above 1000 nM in experiment [4]; below 100 nM in experiment [5]; 100 to 1000 nM in experiment [6].

Turning to `Cc1cc(F)c(C(=O)Nc2ccn([C@H]3CCOC3)n2)cc1NC(=O)c1cnc(N)s1` [Example 191, 2-Amino-N-[4-fluoro-2-methyl-5-[[1-[(3S)-oxolan-3-yl]pyrazol-3-yl]carbamoyl]phenyl]-1,3-thiazole-5-carboxamide], the IC50 in experiment [1] was below 100 nM; in experiment [2], above 1000 nM; in experiment [3] it was above 1000 nM; in experiment [4] it was above 1000 nM; in experiment [5], below 100 nM; in experiment [6], above 1000 nM.

For the compound `Cc1cc(F)c(C(=O)NCC2(F)CCC2)cc1NC(=O)c1cnc(N)s1` [Example 192, 2-amino-N-[4-fluoro-5-[(1-fluorocyclobutyl)methylcarbamoyl]-2-methylphenyl]-1,3-thiazole-5-carboxamide], the IC50 in experiment [1] is below 100 nM; in experiment [2] it was above 1000 nM; in experiment [3] it was above 1000 nM; in experiment [4], above 1000 nM; in experiment [5], below 100 nM; in experiment [6], 100 to 1000 nM.

Consider `Cc1cc(F)c(C(=O)N[C@H]2CCOC2)cc1NC(=O)c1cnc(N)s1` [Example 194, 2-Amino-N-[4-fluoro-2-methyl-5-[[(3S)-oxolan-3-yl]carbamoyl]phenyl]-1,3-thiazole-5-carboxamide], for which the IC50 in experiment [1] is below 100 nM; in experiment [2] it was above 1000 nM; in experiment [3], above 1000 nM; in experiment [4], above 1000 nM; in experiment [5], 100 to 1000 nM; in experiment [6] it was above 1000 nM.

As to `Cc1cc(F)c(C(=O)Nc2ccc(COC(C)C)cn2)cc1NC(=O)c1cnc(N)s1` [Example 195, 2-Amino-N-[4-fluoro-2-methyl-5-[[5-(propan-2-yloxymethyl)pyridin-2-yl]carbamoyl]phenyl]-1,3-thiazole-5-carboxamide], the IC50 was below 100 nM in experiment [1]; 100 to 1000 nM in experiment [2]; above 1000 nM in experiment [3]; above 1000 nM in experiment [4]; below 100 nM in experiment [5]; above 1000 nM in experiment [6].

`CCOCc1ccc(NC(=O)c2cc(NC(=O)c3cnc(N)s3)c(C)cc2F)nc1` [Example 196, 2-Amino-N-[5-[[5-(ethoxymethyl)pyridin-2-yl]carbamoyl]-4-fluoro-2-methylphenyl]-1,3-thiazole-5-carboxamide]: the concentration for half-maximal inhibition (IC50) in experiment [1] was below 100 nM; in experiment [2], above 1000 nM; in experiment [3] it was above 1000 nM; in experiment [4], above 1000 nM; in experiment [5], below 100 nM; in experiment [6], above 1000 nM.

For `COCc1ccc(NC(=O)c2cc(NC(=O)c3cnc(N)s3)c(Cl)cc2F)nc1` [Example 202, 2-Amino-N-[2-chloro-4-fluoro-5-[[5-(methoxymethyl)pyridin-2-yl]carbamoyl]phenyl]-1,3-thiazole-5-carboxamide], the IC50 in experiment [1] is below 100 nM; in experiment [2] it was above 1000 nM; in experiment [3], above 1000 nM; in experiment [4], above 1000 nM; in experiment [5], below 100 nM; in experiment [6], above 1000 nM.

As for `Nc1ncc(C(=O)Nc2cc(C(=O)Nc3ncc(C4CC4)cn3)c(F)cc2Cl)s1` [Example 203, 2-Amino-N-[2-chloro-5-[(5-cyclopropylpyrimidin-2-yl)carbamoyl]-4-fluorophenyl]-1,3-thiazole-5-carboxamide], the IC50 was below 100 nM in experiment [1]; above 1000 nM in experiment [2]; 100 to 1000 nM in experiment [3]; above 1000 nM in experiment [4]; below 100 nM in experiment [5]; 100 to 1000 nM in experiment [6].

Take `Nc1ncc(C(=O)Nc2cc(C(=O)Nc3cnc(C4CC4)nc3)c(F)cc2Cl)s1` [Example 204, 2-Amino-N-[2-chloro-5-[(2-cyclopropylpyrimidin-5-yl)carbamoyl]-4-fluorophenyl]-1,3-thiazole-5-carboxamide]: the IC50 in experiment [1] was below 100 nM; in experiment [2], above 1000 nM; in experiment [3] it was 100 to 1000 nM; in experiment [4], 100 to 1000 nM; in experiment [5] it was below 100 nM; in experiment [6] it was 100 to 1000 nM.

Values taken from patent US20250145606A1 (Arcus Biosciences, Inc., priority 2023, published 2025).
